Results reported in patent US6521623B1, “N,N'-disubstituted benzimidazolone derivatives with affinity at the serotonin and dopamine receptors” (Boehringer Ingelheim Pharma KG, priority 2000, dated 2003).

How the values were obtained:
[1] = target: T1, D4 human receptors (Homo sapiens, UniProt P21917); test: D4 Radioligand Receptor Binding Assay ([3H] YM-09151-2, CHO cell membranes); settings: compound 10^−7 M, singlicate, [3H] YM-09151-2 0.15-0.25 nM
T1 construct: expressed in transfected cells; host or cells: CHO cells
T1 sequence (P21917 1-419): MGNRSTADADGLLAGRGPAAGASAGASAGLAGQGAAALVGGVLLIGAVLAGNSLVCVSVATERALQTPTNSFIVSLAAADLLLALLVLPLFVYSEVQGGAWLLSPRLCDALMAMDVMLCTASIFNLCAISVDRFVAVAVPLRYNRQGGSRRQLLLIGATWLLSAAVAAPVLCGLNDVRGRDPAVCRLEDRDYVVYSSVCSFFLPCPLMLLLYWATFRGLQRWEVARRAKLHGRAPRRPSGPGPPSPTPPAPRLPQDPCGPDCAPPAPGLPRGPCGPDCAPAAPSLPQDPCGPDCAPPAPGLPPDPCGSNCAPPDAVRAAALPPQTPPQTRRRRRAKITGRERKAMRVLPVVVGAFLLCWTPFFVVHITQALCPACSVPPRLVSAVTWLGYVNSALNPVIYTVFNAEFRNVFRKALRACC
Method: D4 Radioligand Receptor Binding Assay
Membranes from CHO cells expressing D4 human receptors, were suspended in incubation buffer.
Binding assays were performed in MultiProbe 204 pipetting system (Packard), according to a predetermined mapping, consistent with the software Screen. The compounds were tested in singlicate at one concentration (10^−7 M) in a total volume of 1000 μl (980 μl of diluted membranes, 10 μl DMSO or unlabelled ligand and 10 μl of [^3H] YM-09151-2 (0.15-0.25 nM). After incubation for 120 minutes at 27° C., the reaction was stopped by rapid filtration through Tomtec Cell Harvester (48 wells) using Filtermat B (presoaked in 0.1% PEI) filters. Filters were washed with ice-cold 50 mM Tris-HCl (pH 7.4) buffer (9×700 μl), dried, covered with MeltiLex B/HS (Wallac) scintillator sheets and heated in oven at 80° C. to 90° C. for about 10 minutes, transferred into plastic sample bags (Wallac), sealed, and put into 1024 Beta Plate scintillation counter (Wallac). Non-specific binding was determined in the presence of clozapine dissolved in DMSO to a final concentration of 10^−5 M.
(§1) The specific radioligand binding to the receptor was defined by the difference between total binding and non-specific binding, determined in the presence of an excess of unlabelled ligand. Results were expressed as percentage of control specific binding obtained in the presence of the compounds.

[2] = target: T2, 5-HT1A (Homo sapiens, UniProt P08908); test: 5HT1A Radioligand Receptor Binding Assay ([3H]-8-OH-DPAT, CHO cell membranes); design: expressed in transfected cells; host or cells: CHO cells; settings: compound 10^−7 M, singlicate; [3H]-8-OH-DPAT 0.6-0.7 nM; CHO membranes, human 5-HT1A
T2 sequence (P08908 1-422): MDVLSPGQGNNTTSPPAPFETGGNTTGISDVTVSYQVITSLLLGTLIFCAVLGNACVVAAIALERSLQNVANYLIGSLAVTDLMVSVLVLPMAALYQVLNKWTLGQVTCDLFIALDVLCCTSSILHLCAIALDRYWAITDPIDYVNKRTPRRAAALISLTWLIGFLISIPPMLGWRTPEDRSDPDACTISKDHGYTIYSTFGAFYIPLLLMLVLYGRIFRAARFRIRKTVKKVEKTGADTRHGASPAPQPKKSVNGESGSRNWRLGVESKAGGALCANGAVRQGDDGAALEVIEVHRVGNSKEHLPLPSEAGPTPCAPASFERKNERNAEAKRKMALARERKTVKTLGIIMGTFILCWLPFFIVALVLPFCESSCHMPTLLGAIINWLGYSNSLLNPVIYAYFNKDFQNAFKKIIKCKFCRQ
Method: 5HT1A Radioligand Receptor Binding Assay
Membranes from CHO cells, expressing 5-HT1A human receptors were suspended in incubation buffer.
Binding assays were performed in MultiProbe 204 pipetting system (Packard), according to a predetermined mapping, consistent with the software Screen. The compounds were tested in singlicate at one concentration (10^−7 M) in a total volume of 1000 μl. 980 μl of diluted membranes, 10 μl DMSO or unlabelled ligand and 10 μl of [^3H]-8-OH-DPAT (0.6-0.7 nM) were incubated for 60 minutes at 27° C. The reaction was stopped by rapid filtration through Tomtec Cell Harvester (48 wells) using Filtermat B (presoaked in 0.1% PEI) filters. Filters were washed with ice-cold 50 mM Tris-HCl (pH 7.4) buffer (9×700 μl), dried, covered with MeltiLex B/HS scintillator sheets (Wallac) and heated at 80° C. to 90° C. for about 10 minutes, transferred into plastic sample bags (Wallac), sealed, and put into 1024 Beta Plate scintillation counter (Wallac). Non-specific binding was determined in the presence of 5-HT (10^−5 M).
as §1, with “compounds. The affinity values (IC50) for the compounds were obtained by a nonlinear least squares regression analysis on the basis of a one binding site model.” for “compounds.”

Row | Structure (SMILES) | D4 Receptor Binding Assay % inhibition (10^−7 M) [1] [%] | 5-HT1A Receptor Binding Assay % inhibition (10^−7 M) [2] [%]
1 | COc1ccccc1N1CCN(CCCCn2c(=O)n(CCO)c3ccccc32)CC1 [Compound 74] | 62 | 92
2 | CCNC(=O)OCCn1c(=O)n(CCCCN2CCN(c3ccccc3)CC2)c2ccccc21 [Compound 75] | 54 | 67
3 | CCNC(=O)OCCn1c(=O)n(CCCCN2CCN(c3ccccn3)CC2)c2ccccc21 [Compound 78] | 44 | 69
4 | CCNC(=O)OCCn1c(=O)n(CCCCN2CCN(c3cccc(Cl)c3)CC2)c2ccccc21 [Compound 79] | 58 | 86
5 | CCNC(=O)OCCn1c(=O)n(CCCCN2CC=C(c3ccccc3)CC2)c2ccccc21 [Compound 84] | 42 | 52
6 | CCNC(=O)OCCn1c(=O)n(CCCCN2CCN(c3ccc(Cl)c(Cl)c3)CC2)c2ccccc21 [Compound 85] | 79 | 77
7 | CCNC(=O)OCCn1c(=O)n(CCCCN2CCN(c3cccc(C)c3C)CC2)c2ccccc21 [Compound 92] | 55 | 94
8 | CCNC(=O)OCCn1c(=O)n(CCCCN2CCN(c3ccccc3OC)CC2)c2ccccc21 [Compound 93] | 62 | 94
9 | CCNC(=O)OCCn1c(=O)n(CCCCN2CCN(c3cccc(C)c3)CC2)c2ccccc21 [Compound 94] | 72 | 88
10 | CCNC(=O)OCCn1c(=O)n(CCCCN2CCN(c3ccccc3C)CC2)c2ccccc21 [Compound 95] | 64 | 85
11 | CCNC(=O)OCCn1c(=O)n(CCCCN2CCN(c3ccccc3Cl)CC2)c2ccccc21 [Compound 96] | 72 | 92
12 | CC(=O)NCCn1c(=O)n(CCCCN2CCN(c3ccc(Cl)c(Cl)c3)CC2)c2ccccc21 [Compound 107] | 58 | 55
13 | CC(=O)NCCn1c(=O)n(CCCCN2CCN(c3ccccc3Cl)CC2)c2ccccc21 [Compound 118] | 36 | 80
14 | O=c1n(CCN2CCCCC2)c2ccccc2n1CCN1CCN(c2cccc(Cl)c2)CC1 [Compound 145] | 42 | 85
15 | O=c1n(CCN2CCCCC2)c2ccccc2n1CCN1CCN(c2cccc(C(F)(F)F)c2)CC1 [Compound 149] | 35 | 88
16 | O=c1n(CCN2CC=C(c3ccccc3)CC2)c2ccccc2n1CCN1CCCCC1 [Compound 150] | 52 | 57
17 | COc1ccccc1N1CCN(CCn2c(=O)n(CCN3CCCCC3)c3ccccc32)CC1 [Compound 159] | 50 | 85
18 | COCCn1c(=O)n(CCN2CC=C(c3ccccc3)CC2)c2ccccc21 [Compound 169] | 58 | 85
19 | O=c1n(CCO)c2ccccc2n1CCN1CCN(c2ccccn2)CC1 [Compound 182] | 45 | 62
20 | O=c1n(CCO)c2ccccc2n1CCN1CC=C(c2ccccc2)CC1 [Compound 188] | 78 | 78
21 | O=c1n(CCO)c2ccccc2n1CCN1CCN(c2ccc(Cl)c(Cl)c2)CC1 [Compound 189] | 99 | 54
